For two compounds, DC50 and Dmax results are on record in patent US20240261418A1, “SOS1 DEGRADING AGENT AND PREPARATION METHOD THEREFOR AND APPLICATION THEREOF” (SHANGHAI LEADINGTAC PHARMACEUTICAL CO. LTD., priority 2021, published 2024).

A value given as a limit tells only on which side of the number the result lay.

The experiment addresses T1, SOS1 protein (Homo sapiens, UniProt Q07889).
T1 sequence (Q07889 1-1333): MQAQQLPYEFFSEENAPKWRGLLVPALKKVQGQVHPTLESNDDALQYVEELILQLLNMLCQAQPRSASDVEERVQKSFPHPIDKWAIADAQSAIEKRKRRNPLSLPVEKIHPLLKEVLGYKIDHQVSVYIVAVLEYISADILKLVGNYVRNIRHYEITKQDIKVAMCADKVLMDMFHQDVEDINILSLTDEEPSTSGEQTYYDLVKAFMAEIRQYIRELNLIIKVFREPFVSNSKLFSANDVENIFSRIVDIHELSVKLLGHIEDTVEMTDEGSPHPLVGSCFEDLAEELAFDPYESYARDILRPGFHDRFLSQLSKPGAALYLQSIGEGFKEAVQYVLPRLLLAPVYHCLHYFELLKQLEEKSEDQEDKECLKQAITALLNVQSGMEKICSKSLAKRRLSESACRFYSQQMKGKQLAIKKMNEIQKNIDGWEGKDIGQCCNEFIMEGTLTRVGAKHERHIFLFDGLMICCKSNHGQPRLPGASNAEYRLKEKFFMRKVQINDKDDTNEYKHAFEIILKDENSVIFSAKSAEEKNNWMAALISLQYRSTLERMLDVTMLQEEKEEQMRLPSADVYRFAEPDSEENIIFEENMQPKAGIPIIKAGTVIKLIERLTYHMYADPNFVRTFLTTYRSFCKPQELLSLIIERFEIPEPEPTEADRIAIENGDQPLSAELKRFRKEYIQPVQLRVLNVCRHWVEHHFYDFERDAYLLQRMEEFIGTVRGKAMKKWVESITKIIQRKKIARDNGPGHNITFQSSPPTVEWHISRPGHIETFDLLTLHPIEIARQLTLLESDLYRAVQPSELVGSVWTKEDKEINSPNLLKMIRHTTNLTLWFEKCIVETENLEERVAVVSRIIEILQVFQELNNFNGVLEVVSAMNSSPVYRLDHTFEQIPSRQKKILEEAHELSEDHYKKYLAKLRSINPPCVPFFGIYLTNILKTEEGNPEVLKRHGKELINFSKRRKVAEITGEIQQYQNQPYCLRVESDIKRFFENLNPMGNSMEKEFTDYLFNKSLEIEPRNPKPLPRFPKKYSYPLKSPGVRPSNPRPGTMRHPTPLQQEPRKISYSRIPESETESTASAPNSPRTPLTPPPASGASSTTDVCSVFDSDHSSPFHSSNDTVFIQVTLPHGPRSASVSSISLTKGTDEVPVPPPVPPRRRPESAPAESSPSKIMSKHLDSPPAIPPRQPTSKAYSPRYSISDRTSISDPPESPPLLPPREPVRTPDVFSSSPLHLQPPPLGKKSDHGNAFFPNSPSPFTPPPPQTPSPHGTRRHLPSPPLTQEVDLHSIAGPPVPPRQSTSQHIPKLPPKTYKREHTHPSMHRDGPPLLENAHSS
Briefly: SOS1 degradation assay (Western blot) in A-427 cells. The arrangement: host or cells: NCI-H358, A-427, SW-620, DLD-1 (human cancer cell lines). In kind it is cell-based. To be noted: A-427 (KRAS G12D), 24 h; for DC50: read-out: A427 (G12D) DC50; for Dmax: read-out: A427 (G12D) Dmax. The procedure:
Test Example 2: SOS1 Degradation Assay
The degradation of SOS1 by the compounds was investigated on KRAS G12C mutant human non-small cell lung cancer cells NCI-H358 (ATCC or Stem Cell Bank, Chinese Academy of Sciences), KRAS G12D mutant human lung cancer cells A-427 (ATCC), KRAS G12V mutant human colorectal adenocarcinoma cells SW-620 (ATCC), and KRAS G13D mutant human colorectal adenocarcinoma epithelial cells DLD-1 (ATCC). The specific procedures were as follows:
0.95 mL of cells were seeded into each well of a 24-well cell culture plate to achieve a cell density of 5×10^5 cells/well; the cell plate was incubated in an incubator at 37° C. with 5% CO2 overnight. Then 50 μL of the compound solution after dilution was added to each of the wells with the corresponding cells, so that the final concentration of the compound was in a range of 0.03-3000 nM. The final concentration of DMSO was 0.25%.
After dosing, the cell plate was incubated in an incubator at 37° C. with 5% CO2 for 24 h. The cell culture medium in the 24-well plate was removed, and the plate was washed twice with 1×PBS. 180 μL of RIPA (strong) lysis buffer (Beyotime, P0013B) supplemented with 1 mM phenylmethylsulfonyl fluoride, a protease inhibitor mixture (Beyotime, P1008), and a protease phosphatase inhibitor mixture (Beyotime, P1045) was added to lyse adherent NCI-H358 cells at the bottom of the cell culture plate. After the plate was left to stand on ice for 30 min, the protein lysate in each well was transferred to a 1.5 mL centrifuge tube and centrifuged at 15000 g for 20 min at 4° C. […] The concentration of total protein in the cell lysate supernatant was determined using the BCA Protein Quantification Kit (Tiangen, PA115-02). […]
The concentration of total protein in the cell lysate was determined by BCA. […] After the blocking, the PVDF membrane was incubated with an SOS1 primary antibody (Abcam, ab140621) at 4° C. overnight, washed with a TBST buffer (2.4 g of Tris, 8.8 g of NaCl, 1.5 mL of Tween 20, with pH adjusted to 7.4, with the volume brought to 1 L) for 30 min (10 min/time), incubated with a secondary antibody (Abcam, ab205718) at room temperature for 2 h, washed with a TBST buffer for 30 min (10 min/time), and finally incubated with Clarity Western ECL Substrate (BIO-RAD, 170-5061) for 5 min for luminescence and color development, and a chemiluminescence imaging system (Clinx, ChemiScope 6200 Touch) was used for color development and protein mapping. […] The gray correction value for each sample was calculated by the formula: gray correction value=(gray value of target protein/gray value of corresponding internal reference)×103. Then the degradation rate was calculated by comparing the gray correction value with the gray correction value of the control group. […]
Background: In western blotting, separated proteins are transferred to a membrane and probed.

Regarding `COc1cc2nc(C)nc(N[C@H](C)c3cc(-c4c(Cl)cccc4CN(C)C)cs3)c2cc1[C@H]1CC[C@H](C(=O)N2CCN(CC3CCC4(CC3)CCN(C(=O)c3ccc(Cl)c(N5CCC(=O)NC5=O)c3)CC4)CC2)CC1` [Example 1, 1-(2-chloro-5-(9-((4-((1R,4R)-4-(4-(((R)-1-(4-(2-chloro-6-((dimethylamino)methyl)phenyl)thien-2-yl)ethyl)amino)-7-methoxy-2-methylquinazolin-6-yl)cyclohexane-1-carbonyl)piperazin-1-yl)methyl)-3-azaspiro[5.5]undecane-3-carbonyl)phenyl)dihydropyrimidine-2,4(1H,3H)-dione], the DC50 (as a rule, the concentration giving 50% degradation) is ≤ 50 nM and the Dmax (as a rule, the greatest extent of degradation seen) was 80 to 100%.
`COc1cc2nc(C)nc(N[C@H](C)c3cc(-c4c(Cl)cccc4CN(C)C)cs3)c2cc1[C@H]1CC[C@H](C(=O)N2CCC(CCOCC3CCN(C(=O)c4ccc(Cl)c(N5CCC(=O)NC5=O)c4)CC3)CC2)CC1` [Example 5, 1-(2-chloro-5-(4-((2-(1-((1R,4R)-4-(4-(((R)-1-(4-(2-chloro-6-((dimethylamino)methyl)phenyl)thien-2-yl)ethyl)amino)-7-methoxy-2-methylquinazolin-6-yl)cyclohexane-1-carbonyl)piperidin-4-yl)ethoxy)methyl)piperidine-1-carbonyl)phenyl)dihydropyrimidine-2,4(1H,3H)-dione]: the DC50 is ≤ 50 nM and the Dmax is 50 to 80%.
